Data: patent US20170215422A1, “NOVEL CYCLIC DEPSIPEPTIDE DERIVATIVES AND HARMFUL ORGANISM CONTROL AGENTS COMPRISING THE SAME” (priority 2012, published 2017)

Assays:
Format in all cases: in vivo
Musca domestica = assay: Control effect against Musca domestica adults (sucrose solution on swab); conditions: 50 ppm in 40% sucrose solution, 4 days
Protocol: A chemical solution of the compound according to the present invention that had been adjusted with a 40% sucrose solution to a concentration of 50 ppm was adsorbed on a swab, and the swab was placed in a vial. Two adults of Musca domestica grown in a room were released, followed by standing in a room at a room temperature of 25° C. […] When two insects were in a dead or anguished state, the test compound was determined to be effective.

[1] = system: Haemaphysalis longicornis; assay: Tickicidal effect against Haemaphysalis longicornis (capsule on mouse); conditions: treatment of 9.5 μg on mouse body surface; nymphal ticks; 5 days
Protocol: A capsule having a diameter of 2 cm and a height of 2 cm was bonded to a surface of a back surface of a mouse. A compound of the present invention (9.5 μg) was dissolved in ethanol, and the solution was dropped on the surface of the body of the […] within the capsule. After thorough drying, ten nymphal ticks of Haemaphysalis longicornis were released, and the upper portion of the capsule was lidded for hermetical closing. The mouse was grown in a cage at 25° C. for 12 hr under light phase conditions. Five days after the release, the capsule was removed, and survival or death of the nymphal ticks and the number of blood sucked individuals were measured, and the death/anguish rate was calculated by the following equation.
Death/anguish rate (%)={number of dead/anguished insects/(number of survived ticks+number of dead/anguished insects)}×100

[2] = system: larvae of Musca domestica; assay: Control effect against larvae of Musca domestica (treated feed); conditions: treatment of 12.5 ppm in feed; 5 days
Protocol: A compound of the present invention was applied to a very small amount of DMSO, followed by dissolution in deionized water to prepare a chemical solution. The chemical solution (2 mil) adjusted to a concentration of 12.5 ppm was added to and well mixed with 2 g of a powder prepared by mixing wheat bran, MF feed (ORIENTAL YEAST Co., Ltd.), and dry yeast at a wheat bran:MF feed:dry yeast of 25:5:1 to prepare a feed for larvae of Musca domestica. The feed containing the compound was lightly packed in a 3-ml vial, and eight eggs were released. The mouth of the vial was closed with a meshed lid, and the vial was left to stand at 25° C. The number of larvae was counted five days after the chemical treatment, and the death rate was calculated by the following equation. The test was carried out by replicating each treatment twice.
Death rate (%)={number of dead larvae/(number of survived larvae+number of dead larvae)}×100

SMILES	insecticidal activity (two adults dead or anguished = effective) (Musca domestica)	death/anguish rate [1]	death rate [2] [%]
CCCCC[C@@H]1OC(=O)[C@H](C)N(C)C(=O)[C@@H](CCCCC)OC(=O)[C@H](C)N(C)C(=O)[C@@H](CCCCC)OC(=O)[C@H](CC(C)C)N(C)C(=O)[C@@H](CCCCC)OC(=O)[C@H](C)N(C)C1=O [Compound 27]	two insects were brought to a dead or anguished state	not less than 70%	
CCCCCC1OC(=O)C(CC(C)C)N(C)C(=O)C(CCCCC)OC(=O)C(CC(C)C)N(C)C(=O)C(CCCCC)OC(=O)C(CCC)N(C)C(=O)C(CCCCC)OC(=O)CN(C)C1=O (stereo not drawn) [Compound 57]			100
